Measurements published in patent US11028095B2, “Spiro-lactam and bis-spiro-lactam NMDA receptor modulators and uses thereof” (Aptinyx Inc., priority 2016, dated 2021).

Legend:
[1] = biological target: T1, NMDAR2A expressing HEK cell membranes (Homo sapiens, UniProt Q05586+Q12879); test: NMDAR agonist assay, [3H]MK-801 binding, NMDAR2A; type: biochemical; conditions: 50 μM glutamate; for EC50: [3H]MK-801 binding, read-out: NMDAR2A: log EC50 (converted)
T1 construct: expressed in transfected cells; host or cells: HEK cells (membrane extract)
T1 sequence (Q12879 23-1464, other chains not shown): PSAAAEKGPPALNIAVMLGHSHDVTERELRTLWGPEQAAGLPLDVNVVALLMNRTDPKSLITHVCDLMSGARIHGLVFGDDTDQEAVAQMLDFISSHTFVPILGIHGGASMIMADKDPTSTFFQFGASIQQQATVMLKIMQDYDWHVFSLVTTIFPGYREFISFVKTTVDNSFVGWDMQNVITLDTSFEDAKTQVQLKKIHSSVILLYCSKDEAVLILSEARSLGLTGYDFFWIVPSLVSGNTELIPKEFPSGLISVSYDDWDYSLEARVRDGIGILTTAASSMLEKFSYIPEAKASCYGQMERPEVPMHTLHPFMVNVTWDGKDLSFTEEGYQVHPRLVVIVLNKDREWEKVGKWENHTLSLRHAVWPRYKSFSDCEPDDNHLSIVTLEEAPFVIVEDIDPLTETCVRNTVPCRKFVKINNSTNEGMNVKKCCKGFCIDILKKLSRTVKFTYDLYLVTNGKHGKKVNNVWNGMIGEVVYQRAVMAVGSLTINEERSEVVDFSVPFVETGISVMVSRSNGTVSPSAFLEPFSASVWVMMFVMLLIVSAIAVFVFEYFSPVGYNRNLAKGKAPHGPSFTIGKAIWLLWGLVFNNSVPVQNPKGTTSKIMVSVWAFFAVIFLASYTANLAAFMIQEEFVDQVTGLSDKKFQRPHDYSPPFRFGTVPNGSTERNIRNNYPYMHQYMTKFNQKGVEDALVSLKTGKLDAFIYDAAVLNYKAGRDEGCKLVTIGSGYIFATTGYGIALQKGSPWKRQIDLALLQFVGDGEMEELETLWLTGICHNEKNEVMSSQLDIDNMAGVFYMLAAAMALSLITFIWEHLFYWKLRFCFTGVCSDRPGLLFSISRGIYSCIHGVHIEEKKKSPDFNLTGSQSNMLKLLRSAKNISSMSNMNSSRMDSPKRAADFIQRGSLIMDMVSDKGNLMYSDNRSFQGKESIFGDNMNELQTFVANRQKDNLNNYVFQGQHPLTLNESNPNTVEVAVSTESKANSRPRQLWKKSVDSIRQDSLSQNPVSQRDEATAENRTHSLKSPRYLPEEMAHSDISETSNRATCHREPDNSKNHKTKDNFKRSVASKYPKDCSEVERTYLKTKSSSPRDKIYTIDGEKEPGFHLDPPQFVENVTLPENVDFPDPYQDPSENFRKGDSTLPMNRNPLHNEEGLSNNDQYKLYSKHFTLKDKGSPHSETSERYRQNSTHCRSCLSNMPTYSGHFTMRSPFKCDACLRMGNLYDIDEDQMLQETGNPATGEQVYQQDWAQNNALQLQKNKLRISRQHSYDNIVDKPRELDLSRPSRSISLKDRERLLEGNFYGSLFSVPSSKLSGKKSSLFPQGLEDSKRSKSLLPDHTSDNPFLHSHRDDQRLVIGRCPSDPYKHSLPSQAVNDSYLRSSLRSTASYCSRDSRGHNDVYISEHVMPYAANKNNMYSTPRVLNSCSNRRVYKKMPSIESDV
Procedure: (§1) (nonequilibrium conditions).
(§2) The baseline value was determined from the best fit curve of the DPM values modeled using the GraphPad program and the log(agonist) vs. response(three parameters) algorithm was then subtracted from all points in the dataset.

[2] = biological target: T2, NMDAR2A expressing HEK cell membranes (Homo sapiens, UniProt Q12879); test: NMDAR agonist assay, [3H]MK-801 binding, NMDAR2A; type: biochemical; conditions: 50 μM glutamate; relative to 1 mM glycine
T2 construct: expressed in transfected cells; host or cells: HEK cells (membrane extract)
Procedure: as §1, §2

[3] = biological target: T3, NMDAR2B expressing HEK cell membranes (Homo sapiens, UniProt Q05586+Q13224); test: NMDAR agonist assay, [3H]MK-801 binding, NMDAR2B; type: biochemical; conditions: 50 μM glutamate; for EC50: [3H]MK-801 binding, read-out: NMDAR2B log EC50 (converted); for Emax: relative to 1 mM glycine, read-out: NMDAR2B: % maximal [3H]MK-801 binding relative to 1 mM glycine
T3 construct: expressed in transfected cells; host or cells: HEK cells (membrane extract)
T3 sequence (Q13224 27-1484, other chains not shown): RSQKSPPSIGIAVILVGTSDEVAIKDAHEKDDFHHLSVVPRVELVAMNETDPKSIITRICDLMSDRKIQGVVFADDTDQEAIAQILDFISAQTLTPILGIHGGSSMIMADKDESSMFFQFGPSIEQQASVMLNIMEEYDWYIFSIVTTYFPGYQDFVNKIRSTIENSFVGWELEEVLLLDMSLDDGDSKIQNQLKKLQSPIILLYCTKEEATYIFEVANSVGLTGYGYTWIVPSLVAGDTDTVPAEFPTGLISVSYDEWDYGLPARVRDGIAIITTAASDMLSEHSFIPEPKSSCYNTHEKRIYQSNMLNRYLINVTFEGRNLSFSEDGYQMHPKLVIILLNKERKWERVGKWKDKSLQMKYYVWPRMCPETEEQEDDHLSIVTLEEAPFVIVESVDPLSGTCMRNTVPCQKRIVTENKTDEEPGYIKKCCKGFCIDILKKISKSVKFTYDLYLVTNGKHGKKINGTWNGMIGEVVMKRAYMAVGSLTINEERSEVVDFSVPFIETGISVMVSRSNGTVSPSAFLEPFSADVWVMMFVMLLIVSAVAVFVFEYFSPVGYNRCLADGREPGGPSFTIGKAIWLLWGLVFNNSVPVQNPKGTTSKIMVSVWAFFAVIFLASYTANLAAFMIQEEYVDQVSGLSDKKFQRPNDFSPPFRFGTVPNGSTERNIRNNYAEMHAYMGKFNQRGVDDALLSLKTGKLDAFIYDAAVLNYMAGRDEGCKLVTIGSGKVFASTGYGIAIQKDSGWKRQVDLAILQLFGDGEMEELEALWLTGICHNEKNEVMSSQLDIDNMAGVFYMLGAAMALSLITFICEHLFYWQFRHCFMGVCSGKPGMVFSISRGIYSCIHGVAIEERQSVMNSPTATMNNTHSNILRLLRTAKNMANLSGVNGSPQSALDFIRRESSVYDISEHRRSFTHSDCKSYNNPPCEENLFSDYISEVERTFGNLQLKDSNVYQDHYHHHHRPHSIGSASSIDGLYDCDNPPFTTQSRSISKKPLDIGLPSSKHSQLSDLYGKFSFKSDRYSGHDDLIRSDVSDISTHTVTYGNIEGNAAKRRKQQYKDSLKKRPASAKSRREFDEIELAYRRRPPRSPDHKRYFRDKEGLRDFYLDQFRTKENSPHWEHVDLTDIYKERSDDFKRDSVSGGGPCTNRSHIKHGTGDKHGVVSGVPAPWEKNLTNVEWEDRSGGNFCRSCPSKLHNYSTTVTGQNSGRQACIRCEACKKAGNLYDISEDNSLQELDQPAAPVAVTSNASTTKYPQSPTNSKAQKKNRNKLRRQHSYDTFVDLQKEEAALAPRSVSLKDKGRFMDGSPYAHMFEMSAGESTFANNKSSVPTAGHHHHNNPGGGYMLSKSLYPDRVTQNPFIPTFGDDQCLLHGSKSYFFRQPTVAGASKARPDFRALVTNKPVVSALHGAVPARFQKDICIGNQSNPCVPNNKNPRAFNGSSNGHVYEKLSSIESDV
Procedure: as §1, §2

[4] = biological target: T4, NMDAR2B expressing HEK cell membranes (Homo sapiens, UniProt Q13224); test: NMDAR agonist assay, [3H]MK-801 binding, NMDAR2B; type: biochemical; conditions: 50 μM glutamate; relative to 1 mM glycine
T4 construct: expressed in transfected cells; host or cells: HEK cells (membrane extract)
T4 sequence (Q13224 27-1484, other chains not shown): as above
Procedure: as §1, §2

IV pharmacokinetics = type: in vivo; conditions: Sprague Dawley, rat, in vivo, iv, 2 mg/kg, Sprague Dawley rats, normal saline
Procedure: Sprague Dawley rats were dosed intravenously using a normal saline formulation containing 2 mg/kg of the compounds identified in the below table. The table below summarizes the results of the IV pharmacokinetics.

[5] = Microsomal stability (Human); type: in vitro ADME; conditions: human microsomes
Procedure: (§3) Microsomal stability of disclosed compounds was investigated. The following table indicates the percent of compound remaining after 60 minutes.

[6] = Oral pharmacokinetics (plasma, brain, CSF); type: in vivo; conditions: Sprague Dawley rats, per os, 10 mg/kg
Procedure: In another experiment, Sprague Dawley rats were dosed per os using a normal saline formulation containing 10 mg/kg of the compounds identified in the table below. Plasma, brain, and CSF samples were analyzed at various time points over a 24 hour period. The table below summarizes the results of the oral pharmacokinetics.

[7] = system: positive (hedonic) 50-kHz ultrasonic vocalizations (USVs); test: Positive Emotional Learning (PEL) test; type: in vivo; conditions: rat, PO, dose 0.1 mg/kg, one hour after administration
Procedure: Experiments were conducted as described in Burgdorf et al., “The effect of selective breeding for differential rates of 50-kHz ultrasonic vocalizations on emotional behavior in rats,” Devel. […] Rat 50-kHz ultrasonic vocalization (hedonic USVs) is a validated model for the study of positive affective state and is best elicited by rough-and-tumble play.
The PEL assay measures the acquisition of positive (hedonic) 50-kHz ultrasonic vocalizations (USVs) to a social stimulus, heterospecific rough and tumble play stimulation. Heterospecific rough-and-tumble play stimulation was administered by the experimenter's right hand. One hour after administration of test compound or vehicle negative control (0.5% sodium carboxymethyl cellulose in 0.9% sterile saline vehicle), animals received 3 min of heterospecific rough-and-tumble play that consisted of alternating 15 sec blocks of heterospecific play and 15 sec of no-stimulation. […] Frequency modulated 50-kHz USVs that occurred during each of the no-stimulation periods were quantified to measure PEL. Animals were not habituated to play stimulation before testing. Positive emotional learning was measured during the conditioned stimulus (CS) trials preceding the tickle unconditioned stimulus (UCS) trials. Animals received 15 second trials consisting of 6 CS and 6 UCS trials each (3 min total).

[8] = Microsomal stability (Rat); type: in vitro ADME; conditions: rat microsomes
Procedure: as §3

Plasma stability (Human) = type: in vitro ADME
Procedure: (§4) Plasma stability of disclosed compounds was investigated. The following table indicates the percent of compound remaining after 60 minutes.

Plasma stability (Rat) = type: in vitro ADME
Procedure: as §4

[9] = Sprague Dawley, rat, plasma, po

EC50 [1] | NMDAR2A: % maximal [3H]MK-801 binding relative to 1 mM glycine [2] | EC50 [3] | NMDAR2B: % maximal [3H]MK-801 binding relative to 1 mM glycine [4] | SMILES | other results
< 1 nM | + (<100%=+) | > 100 nM | − (−=0) | C[C@@H](O)[C@H](NC1CN(C(=O)OC(C)(C)C)C2(CNC2=O)C1)C(N)=O (single isomer, unassigned) [CG] | Emax [3]: 0%
< 1 nM | + (<100%=+) | < 1 nM | ++ (>100%=++) | CC(O)C(C(N)=O)N(C)CC1CCC2(CNC2=O)N1 (single isomer, unassigned) [CV] | –
< 1 nM | + (<100%=+) | > 100 nM | − (−=0) | O=C1NCC12CN(Cc1ccccc1)C1(CNC1=O)C2 (single isomer, unassigned) [DO, 10-benzyl-2,8,10-triazadispiro[3.1.3^6.2^4]undecane-1,7-dione] | –
< 1 nM | + (<100%=+) | < 1 nM | ++ (>100%=++) | O=C1NCC12CN(Cc1ccccc1)C1(CNC1=O)C2 (single isomer, unassigned) [DP, 10-benzyl-2,8,10-triazadispiro[3.1.3^6.2^4]undecane-1,7-dione] | –
> 100 nM | − (−=0) | < 1 nM | + (<100%=+) | O=C1NCC12CN(Cc1ccccc1)C1(CNC1=O)C2 (single isomer, unassigned) [DQ, 10-benzyl-2,8,10-triazadispiro[3.1.3^6.2^4]undecane-1,7-dione] | –
< 1 nM | + (<100%=+) | < 1 nM | + (<100%=+) | O=C1NCC12CN(Cc1ccccc1)C1(CNC1=O)C2 (single isomer, unassigned) [DR, 10-benzyl-2,8,10-triazadispiro[3.1.3^6.2^4]undecane-1,7-dione] | –
> 100 nM | – | < 1 nM | – | CC(=O)N1C(C(=O)N[C@H](C(N)=O)[C@@H](C)O)CCC12CNC2=O (stereo partly drawn) [AO, 5-acetyl-N-((2S,3R)-1-amino-3-hydroxy-1-oxobutan-2-yl)-1-oxo-2,5-diazaspiro[3.4]octane-6-carboxamide] | AUC(0-t) (IV pharmacokinetics): 4430 ng·h/mL; clearance (IV pharmacokinetics): 7.59 mL/min/kg; half-life (IV pharmacokinetics): 2.17 h; C0 (IV pharmacokinetics; read-out: C0): 11900 ng/mL; Vd (IV pharmacokinetics; read-out: Vss): 0.22 L/kg; Microsomal (Human): percent of compound remaining after 60 minutes [5]: 100%; CSF Cmax ([6]; CSF): 17.89 ng/mL; Brain Cmax ([6]; brain): 0 ng/mL; AUC(0-t) [6, 9]: 1320 ng·h/mL; bioavailability [6, 9]: 6%; Tmax ([6]; Sprague Dawley, rat, plasma, po, normal saline, read-out: Tmax): 2.67 h; Cmax ([6]; Sprague Dawley, rat, plasma, po, plasma, read-out: Cmax): 247 ng/mL; Max Effect (mean number of 50 kHz USVs per 15 seconds) [7]: ** (**: 11-16.9); Emax ([1]; relative to 1 mM glycine, read-out: NMDAR2A: % maximal [3H]MK-801 binding relative to 1 mM glycine): 0%; Emax [3]: < 100%; Microsomal (Rat): percent of compound remaining after 60 minutes [8]: 100%; Plasma (Human): percent of compound remaining after 60 minutes (Plasma stability (Human)): 100%; Plasma (Rat): percent of compound remaining after 60 minutes (Plasma stability (Rat)): 93%
